Experimental data: patent US20130261188A1, “Ibuprofen Solid Oral Dosage Composition Comprising a Methacrylic Acid Copolymer” (TEIKOKU PHARMA USA, INC., priority 2012, published 2013)
≈ marks a conversion by molar mass, not a printed value.

Assay: Solubility of ibuprofen in simulated salivary fluid (excess ibuprofen, sonication, centrifugation, HPLC)
Assay type: physicochemical
Conditions: fassgf or other biorelevant, thermodynamic from solid, simulated salivary fluid (19 mM phosphate buffer, 150 mM sodium chloride, pH 6.75), sonicated approximately 1 hour, centrifuged
Description: In addition, solubility of ibuprofen was evaluated by adding an excess of ibuprofen to simulated salivary fluid and sonicating for approximately 1 hour. The solution was then centrifuged and injected onto the HPLC.

solubility: 1800 µg/mL (≈ 8.73 mM)
SMILES: CC(C)Cc1ccc(C(C)C(=O)O)cc1 (stereo not shown) [ibuprofen, 2-(p-isobutylphenyl)propionic acid]
